In data set [1] the test system is BMP responsive sequence. The data set is described as follows: Luciferase reporter after siRNA knockdown of ACVR1 or BMPR1A in FOP patient derived cells treated with activin A. In kind it is cell-based, human. Conditions: activin A 16 hours. The procedure: Patient iPS cell line-derived mesenchymal stem cell-like cells were prepared by the same method as Example 1. The cells were transfected with a Firefly luciferase reporter plasmid having the BMP responsive sequence in the promoter region, a plasmid having a nucleic acid sequence coding for Renilla luciferase downstream of the CMV promoter, as an internal standard, and siRNA for ACVR1 or BMPR1A, using a Lipofectamine 2000 (product of Invitrogen Corp.), for knockdown of ACVR1 or BMPR1A expression. BMPR1A is a type I receptor that transmits the BMP signal. The siRNA used for knockdown was siRNA purchased from Applied Biosystems, having two different sequences for each gene (Catalog Nos. ACVR1:S975, S976, BMPR1A:S281, S282). The cells were also cultured for 16 hours with addition of activin A in the same manner as Example 1. The cells were then solubilized and the luciferase activity was measured. In FIG. 5, the bar graph indicates the mean values for each treated group, and the error bars represent S.D. Here, the sequences of the siRNA used for the test were S975: sense strand: 5′-GGAUCAUUCGUGUACAUCAtt-3′ (SEQ ID NO: 37), antisense strand: 5′-UGAUGUACACGAAUGAUCCaa-3′ (SEQ ID NO: 38), S976: sense strand: 5′-GUUGCUCUCCGAAAAUUUAtt-3′ (SEQ ID NO: 39), antisense strand: 5′-UAAAUUUUCGGAGAGCAACtc-3′ (SEQ ID NO: 40), S281: sense strand: 5′-GGCCGAUAUGGAGAAGUAUtt-3′ (SEQ ID NO: 41), antisense strand: 5′-AUACUUCUCCAUAUCGGCCtt-3′ (SEQ ID NO: 42), S282: sense strand: 5′-GAAUCUGGAUAGUAUGCUUtt-3′ (SEQ ID NO: 43), antisense strand: 5′-AAGCAUACUAUCCAGAUUCtg-3′ (SEQ ID NO: 44). The sequence portions printed in lowercase represent the overhang portions, as portions where the ribose backbone has been replaced with a deoxyribose backbone.

Data set [2] concerns FOP patient derived cells. The data set is described as follows: Evaluation of binding inhibitors: chondrocyte differentiation of FOP patient derived cells in copresence of human activin A. In kind it is cell-based. To be noted: copresence of 30 ng/mL human activin A, 6 days; vs activin-treated group. The procedure:
Patient iPS cell line-derived mesenchymal stem cell-like cells were prepared by the same method as Example 1. The mesenchymal stem cell-like cells were cultured for 6 days by the same method as Example 3, for differentiation to chondrocytes. The effect of each factor on differentiation to chondrocytes was examined, with neutralizing antibody for human activin A (product of R&D Systems, Inc., trade name: Human/Mouse/Rat Activin A βA subunit Antibody), follistatin (product of R&D Systems, Inc., trade name: Recombinant Human Follistatin 315 as 30-344), follistatin-like 3 (product of R&D Systems, Inc., trade name: Recombinant Human Follistatin-related Gene Protein/FLRG), ACVR2A-Fc chimeric protein (product of R&D Systems, Inc., trade name: Recombinant Human Activin RIIA Fc Chimera (CHO)), or ACVR2B-Fc chimeric protein (product of R&D Systems, Inc., trade name: Recombinant Human Activin RIIB Fc Chimera), in the copresence of 30 ng/mL of human activin A. The ACVR2A-Fc chimeric protein is a fusion protein in which a polypeptide fragment having the amino acid sequence of positions 20 to 134 of the amino acid sequence listed as SEQ ID NO: 12, and the Fc region of the human-derived antibody, are bonded via a linker sequence (Ile-Glu-Gly-Arg-Met-Asp). The ACVR2B-Fc chimeric protein is a fusion protein in which a polypeptide fragment having the amino acid sequence of positions 19 to 134 of the amino acid sequence listed as SEQ ID NO: 14, and the Fc region of the human-derived antibody, are bonded via a linker sequence (Ile-Glu-Gly-Arg-Met-Asp). The extent of differentiation to chondrocytes was evaluated by Alcian blue staining and sulfated glycosaminoglycan assay, similar to Example 3. In FIG. 6(B), the bar graph indicates the mean values for each treated group, and the error bars represent S.D.

Data set [3] concerns the target T1, wild type ACVR1 (Homo sapiens, UniProt Q04771).
T1 construct: an iPS cell line with the ACVR1 gene mutation repaired to the normal type (wild type) by gene repair by a BAC knockin vector; endogenous in cells; host or cells: mesenchymal stem cell-like cells differentiated from the gene-corrected iPS cell clone
T1 sequence (Q04771 21-509): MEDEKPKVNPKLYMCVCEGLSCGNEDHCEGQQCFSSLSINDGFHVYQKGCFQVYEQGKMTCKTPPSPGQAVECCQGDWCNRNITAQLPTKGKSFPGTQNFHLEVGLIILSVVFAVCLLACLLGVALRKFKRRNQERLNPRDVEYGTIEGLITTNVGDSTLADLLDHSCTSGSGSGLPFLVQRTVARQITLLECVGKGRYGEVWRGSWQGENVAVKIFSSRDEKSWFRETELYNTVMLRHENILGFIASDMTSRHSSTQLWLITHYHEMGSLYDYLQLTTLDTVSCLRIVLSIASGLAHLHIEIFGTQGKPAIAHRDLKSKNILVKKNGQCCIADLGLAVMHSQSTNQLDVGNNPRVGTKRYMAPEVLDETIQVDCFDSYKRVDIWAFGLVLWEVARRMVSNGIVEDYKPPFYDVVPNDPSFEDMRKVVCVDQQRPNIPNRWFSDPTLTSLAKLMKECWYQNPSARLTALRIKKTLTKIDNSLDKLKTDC
Briefly: Luciferase reporter (BMP responsive sequence) transcription activity in gene-corrected clone derived cells. It counts as cell-based. To be noted: ligand 1, 10, 100 ng/mL, 16 hours. The text has this: (§1) Following the method of Yamanaka et al. (Cell, 2007, 131 (5), […]), FOP patient-derived iPS cells (hereunder also referred to as “patient-derived iPS cell line”) were established. The patient cells were confirmed to be cells having a typical FOP-associated mutation in the ACVR1 gene. The mutation is a substitution of the 206th arginine residue of the amino acid sequence of ACVR1 (the amino acid sequence listed as SEQ ID NO: 10) with a histidine residue. Next, for use as a control, an iPS cell line with the ACVR1 gene mutation repaired to the normal type (wild type) by gene repair by a BAC knockin vector (hereunder also referred to as “gene-corrected iPS cell clone” or “gene-rescued iPS cell clone”) was established.
(§2) The patient-derived iPS cell line and gene-corrected iPS cell line were cultured on the matrix of a Matrigel coated plate (trade name: Growth Factor Reduced (GFR)BD Matrigel® by Becton & Dickinson), using mTeSR1 (Stem Cell Technologies) for 2 days under feeder-free conditions. Next, using serum-free medium [F12 Nutrient Mixture (product of Gibco)/Iscove's Modified Dulbecco's Medium (IMDM) (product of Sigma-Aldrich Japan, KK.)/0.5% bovine serum albumin (BSA) (product of Sigma-Aldrich Japan, KK.)/1% Chemically Defined Lipid (CD-Lipid) (product of Gibco, trade name: Chemically Defined Lipid Concentrate)/15 μg/mL apotransferrin (product of Sigma-Aldrich Japan, KK., trade name: apo-Transferrin human)/7 μg/mL insulin (product of Wako Pure Chemical Industries, Ltd., trade name: Insulin, Human, recombinant)/0.45 mM 1-Thioglycerol (product of Sigma-Aldrich Japan, KK.)] with addition of 10 μM SB-431542 (product of Selleck Chemicals) and 1 μM CHIR99021 (product of Wako Pure Chemical Industries, Ltd.), the patient-derived iPS cell line and gene-corrected iPS cell line were further cultured for 1 week under feeder-free conditions for differentiation to neural crest cells. […]
(§3) After mixing Firefly luciferase reporter plasmid having the BMP responsive sequence in the promoter region (J. Biol. Chem., 2002, 277(7), 4883-4891) and a plasmid having a nucleic acid sequence coding for Renilla luciferase downstream from CMV promoter, as an internal standard (product of Promega Corp., trade name: phRL-CMV Vector), FuGene® HD (Promega Corp.) was used for transfection into the mesenchymal stem cell-like cells. […] Next, the luciferase activity was measured according to the protocol provided with a Dual-Glo Luciferase Assay System (product of Promega Corp.). The luminescence was detected using an EnVision Multilabel Counter (product of Perkin-Elmer). […]
Background: A reporter such as luciferase makes a cellular process visible.

Data set [4] concerns the target T2, FOP patient-derived ACVR1 (Homo sapiens, UniProt Q04771, R206H).
T2 construct: The patient cells were confirmed to be cells having a typical FOP-associated mutation in the ACVR1 gene; endogenous in cells; host or cells: mesenchymal stem cell-like cells differentiated from an FOP patient-derived iPS cell line
T2 sequence (Q04771 21-509 R206H): T1 sequence (Q04771 21-509) with R186H
The data set is described as follows: Luciferase reporter (BMP responsive sequence) transcription activity via ACVR1 in FOP patient derived cells. To be noted: ligand 1, 10, 100 ng/mL, 16 hours, significant at 10 and 100 ng/mL vs untreated group. In kind it is cell-based.
Excerpt: as §1, §2, §3

Numbering of substitutions follows the chain as printed. d = 2'-deoxy (DNA); r = 2'-OH (RNA)

With “ACVR1-1: siRNA for ACVR1 (Applied Biosystems S975), SEQ ID NO: 37/38 (chain 1 GGAUCAUUCGUGUACAUCATT; chain 2 UGAUGUACACGAAUGAUCCAA; sugars from the 5' end r19 d2, backbone not given here)”, the “transcription activation of the BMP responsive sequence by human activin A after siRNA knockdown” value (“transcription activation” below) in data set [1] is reported as “disappeared”.

With “ACVR1-2: siRNA for ACVR1 (Applied Biosystems S976), SEQ ID NO: 39/40 (chain 1 GUUGCUCUCCGAAAAUUUATT; chain 2 UAAAUUUUCGGAGAGCAACTC; sugars from the 5' end r19 d2, backbone not given here)”, the “transcription activation” value in data set [1] is “disappeared”. As for “ACVR2A-Fc chimeric protein: Fusion of positions 20 to 134 of SEQ ID NO: 12 with human antibody Fc region via linker Ile-Glu-Gly-Arg-Met-Asp”, the “differentiation of FOP patient derived cells to chondrocytes (Alcian blue staining, sulfated glycosaminoglycan assay)” value in data set [2] was “inhibited”.

For the substance “BMPR1A-1: siRNA for BMPR1A (Applied Biosystems S281), SEQ ID NO: 41/42 (chain 1 GGCCGAUAUGGAGAAGUAUTT; chain 2 AUACUUCUCCAUAUCGGCCTT; sugars from the 5' end r19 d2, backbone not given here)”, the “transcription activation” value in data set [1] was “not affected”. The same measure, in the same setting: the same measure for “BMPR1A-2: siRNA for BMPR1A (Applied Biosystems S282), SEQ ID NO: 43/44 (chain 1 GAAUCUGGAUAGUAUGCUUTT; chain 2 AAGCAUACUAUCCAGAUUCTG; sugars from the 5' end r19 d2, backbone not given here)”: “not affected”. As to “human activin AB: Recombinant Human Activin AB (R&D Systems); heterodimer of βA chain and βB chain”, the “transcription activity via ACVR1 (firefly/Renilla luciferase activity, BMP responsive sequence)” value in data set [3] was “not seen”; in data set [4], “significantly increased”.

Consider “human activin B: Recombinant Human Activin B (R&D Systems); homodimer of βB chains”, for which the “transcription activity via ACVR1 (firefly/Renilla luciferase activity, BMP responsive sequence)” value in data set [3] was “not seen”; in data set [4] it was “significantly increased”.

For the origin of these results see patent publication US10260068B2, “Prophylactic agent and therapeutic agent for fibrodysplasia ossificans progressiva” (Sumitomo Dainippon Pharma Co., Ltd., priority 2014, dated 2019).
